Measured values taken from patent publication US10517294B2, “Dihydrothiophene derivatives as insecticidal compounds” (priority 2012, dated 2019).

Legend:
Assay type in all cases: in vivo
[1] = test system: Diabrotica balteata; assay: Diabrotica balteata (corn root worm), artificial diet; details: 120 h, application rate 200 ppm, L2 larvae on artificial diet, 5 days after infestation, read-out: control (at least one of mortality, growth inhibition)
Procedure: (§1) 24-well microtiter plates with artificial diet were treated with aqueous test solutions prepared from 10′000 ppm DMSO stock solutions by pipetting. After drying, the plates were infested with L2 larvae (6 to 10 per well). The samples were assessed for mortality and growth inhibition 5 days after infestation. Control of Diabrotica balteata by a test sample is noted when at least one of mortality and growth inhibition is better than the untreated sample.

[2] = test system: Thrips tabaci; assay: Thrips tabaci (onion thrips), sprayed sunflower leaf discs; details: foliar, 144 h, application rate 200 ppm, mixed ages on sunflower leaf discs, 6 days after infestation, read-out: control (mortality)
Procedure: (§2) Sunflower leaf discs were placed on agar in 24-well microtiter plates and sprayed with aqueous test solutions prepared from 10′000 ppm DMSO stock solutions. After drying the leaf discs were infested with a thrips population of mixed ages. The samples were assessed for mortality 6 days after infestation.

[3] = test system: Heliothis virescens; assay: Heliothis virescens (tobacco budworm), eggs on artificial diet; details: application rate 200 ppm, eggs 0-24 h old on artificial diet, 5 days after infestation, read-out: control (at least one of egg mortality, larval mortality, growth inhibition)
Procedure: Eggs (0-24 h old) were placed in 24-well microtiter plates on artificial diet and treated with aqueous test solutions prepared from 10′000 ppm DMSO stock solutions by pipetting. The samples were assessed for egg mortality, larval mortality and growth inhibition 5 days after infestation. Control of Heliothis virescens by a test sample is noted when at least one of egg mortality, larval mortality and growth inhibition is better than the untreated sample.

[4] = test system: Plutella xylostella; assay: Plutella xylostella (diamond back moth), artificial diet; details: 120 h, application rate 200 ppm, L2 larvae on artificial diet, 5 days after infestation, read-out: control (at least one of mortality, growth inhibition)
Procedure: as §1, with “larvae (10” for “larvae (6”, “to 15” for “to 10”, “of Plutella xyllostella” for “of Diabrotica balteata”

[5] = test system: Tetranychus urticae; assay: Tetranychus urticae (two-spotted spider mite), sprayed bean leaf discs; details: foliar, 192 h, application rate 200 ppm, mixed ages on bean leaf discs, 8 days after infestation, read-out: control (mortality, mobile stages)
Procedure: as §2, with “Bean” for “Sunflower”, “discs” for “discs were placed”, “were” for “and”, “mite” for “thrips”, “(mobile stages) 8” for “6”

[6] = test system: Euschistus heros; assay: Euschistus heros (neotropical brown stink bug), sprayed soybean plants; details: 120 h, application rate 50 ppm, N2 nymphs on sprayed soybean plants, 5 days after infestation, read-out: control (at least one of mortality, growth inhibition)
Procedure: Two weeks old soybean plants were sprayed in a turn table spray chamber with the diluted spray solutions. After drying 2 soybean seeds were added and plants were infested with 10 N2 nymphs of the neotropical brown stink bug Euschistus heros in plastic test boxes. The samples were assessed for mortality and growth inhibition 5 days after infestation. Control of Euschistus heros by a test sample is noted when at least one of mortality and growth inhibition is better than the untreated sample.

[7] = test system: Spodoptera littoralis; assay: Spodoptera littoralis (Egyptian cotton leaf worm), sprayed cotton leaf discs; details: foliar, 72 h, application rate 200 ppm, L1 larvae on cotton leaf discs, 3 days after infestation, read-out: control (at least one of mortality, anti-feedant effect, growth inhibition)
Procedure: Cotton leaf discs were placed on agar in 24-well microtiter plates and sprayed with aqueous test solutions prepared from 10′000 ppm DMSO stock solutions. After drying the leaf discs were infested with five L1 larvae. The samples were assessed for mortality, anti-feedant effect, and growth inhibition 3 days after infestation. Control of Spodoptera littoralis by a test sample is noted when at least one of mortality, anti-feedant effect, and growth inhibition is better than the untreated sample.

[8] = test system: Diabrotica balteata; assay: Diabrotica balteata (corn root worm), sprayed maize sprouts; details: 96 h, application rate 200 ppm, L2 larvae on sprayed maize sprouts, 4 days after infestation, read-out: control (at least one of mortality, growth inhibition)
Procedure: as §1, with “Maize sprouts, placed on an agar layer in 24-well” for “24-well”, “plates” for “plates with artificial diet”, “spraying.” for “pipetting.”, “4” for “5”

Cc1cc(C2=CSC(c3cc(Cl)cc(Cl)c3)(C(F)(F)F)C2)ccc1C(=O)NC1CCC1 (stereo not shown) [Compound A1, N-cyclobutyl-4-[2-(3,5-dichlorophenyl)-2-(trifluoromethyl)-3H-thiophen-4-yl]-2-methyl-benzamide]
≥ 80%: mortality at 200 ppm [1] | mortality at 200 ppm [2] | mortality at 200 ppm [3] | mortality at 200 ppm [4] | mortality at 200 ppm [5] | mortality at 50 ppm [6] | percent control (mortality, anti-feedant effect or growth inhibition) at 200 ppm [7]

Cc1cc(C2=CSC(c3cc(Cl)cc(Cl)c3)(C(F)(F)F)C2)ccc1C(=O)NCC(F)(F)F (stereo not shown) [Compound A2, 4-[2-(3,5-dichlorophenyl)-2-(trifluoromethyl)-3H-thiophen-4-yl]-2-methyl-N-(2,2,2-trifluoroethyl)benzamide]
≥ 80%: mortality at 200 ppm [1] | mortality at 200 ppm [2] | mortality at 200 ppm [3] | mortality at 200 ppm [4] | mortality at 200 ppm [5] | mortality at 50 ppm [6] | percent control (mortality, anti-feedant effect or growth inhibition) at 200 ppm [7]

Cc1cc(C2=CSC(c3cc(Cl)cc(Cl)c3)(C(F)(F)F)C2)ccc1C(=O)NCC(=O)NCC(F)(F)F (stereo not shown) [Compound A3, 4-[2-(3,5-dichlorophenyl)-2-(trifluoromethyl)-3H-thiophen-4-yl]-2-methyl-N-[2-oxo-2-(2,2,2-trifluoroethylamino)ethyl]benzamide]
≥ 80%: mortality at 200 ppm [1] | mortality at 200 ppm [2] | mortality at 200 ppm [3] | mortality at 200 ppm [4] | mortality at 200 ppm [5] | mortality at 50 ppm [6] | percent control (mortality, anti-feedant effect or growth inhibition) at 200 ppm [7]

Cc1cc(C2=CSC(c3cc(Cl)cc(Cl)c3)(C(F)(F)F)C2)ccc1C(=O)NC1CS(=O)(=O)C1 (stereo not shown) [Compound A4, 4-[2-(3,5-dichlorophenyl)-2-(trifluoromethyl)-3H-thiophen-4-yl]-N-(1,1-dioxothietan-3-yl)-2-methyl-benzamide]
≥ 80%: mortality at 200 ppm [1] | mortality at 200 ppm [2] | mortality at 200 ppm [3] | mortality at 200 ppm [4] | mortality at 200 ppm [5] | mortality at 50 ppm [6] | percent control (mortality, anti-feedant effect or growth inhibition) at 200 ppm [7]

Cc1cc(C2=CSC(c3cc(Cl)cc(Cl)c3)(C(F)(F)F)C2)ccc1C(=O)NC1CSC1 (stereo not shown) [Compound A5, 4-[2-(3,5-dichlorophenyl)-2-(trifluoromethyl)-3H-thiophen-4-yl]-2-methyl-N-(thietan-3-yl)benzamide]
≥ 80%: mortality at 200 ppm [1] | mortality at 200 ppm [2] | mortality at 200 ppm [3] | mortality at 200 ppm [4] | mortality at 200 ppm [5] | mortality at 50 ppm [6] | percent control (mortality, anti-feedant effect or growth inhibition) at 200 ppm [7]

Cc1cc(C2=CSC(c3cc(Cl)cc(Cl)c3)(C(F)(F)F)C2)ccc1C(N)=O (stereo not shown) [Compound A6, 4-[2-(3,5-dichlorophenyl)-2-(trifluoromethyl)-3H-thiophen-4-yl]-2-methyl-benzamide]
≥ 80%: mortality at 200 ppm [1] | mortality at 200 ppm [3] | mortality at 200 ppm [4] | percent control (mortality, anti-feedant effect or growth inhibition) at 200 ppm [7]

Cc1cc(C2=CSC(c3cc(Cl)cc(Cl)c3)(C(F)(F)F)C2)ccc1C(=O)N[C@H]1C[S@@+]([O-])C1 (stereo partly shown) [Compound A7, 4-[2-(3,5-dichlorophenyl)-2-(trifluoromethyl)-3H-thiophen-4-yl]-2-methyl-N-(1-oxidothietan-1-ium-3-yl)benzamide]
≥ 80%: mortality at 200 ppm [1] | mortality at 200 ppm [2] | mortality at 200 ppm [3] | mortality at 200 ppm [4] | mortality at 200 ppm [5] | mortality at 50 ppm [6] | percent control (mortality, anti-feedant effect or growth inhibition) at 200 ppm [7]

Cc1cc(C2=CSC(c3cc(Cl)cc(Cl)c3)(C(F)(F)F)C2)ccc1C(=O)NCc1ccccn1 (stereo not shown) [Compound A8, 4-[2-(3,5-dichlorophenyl)-2-(trifluoromethyl)-3H-thiophen-4-yl]-2-methyl-N-(2-pyridylmethyl)benzamide]
≥ 80%: mortality at 200 ppm [1] | mortality at 200 ppm [2] | mortality at 200 ppm [3] | mortality at 200 ppm [4] | mortality at 200 ppm [5] | percent control (mortality, anti-feedant effect or growth inhibition) at 200 ppm [7]

CCN1OC[C@@H](NC(=O)c2ccc(C3=CSC(c4cc(Cl)cc(Cl)c4)(C(F)(F)F)C3)cc2C)C1=O (stereo partly drawn) [Compound A9, 4-[2-(3,5-dichlorophenyl)-2-(trifluoromethyl)-3H-thiophen-4-yl]-N-[(4R)-2-ethyl-3-oxo-isoxazolidin-4-yl]-2-methyl-benzamide]
≥ 80%: mortality at 200 ppm [1] | mortality at 200 ppm [2] | mortality at 200 ppm [3] | mortality at 200 ppm [4] | mortality at 200 ppm [5] | mortality at 50 ppm [6] | percent control (mortality, anti-feedant effect or growth inhibition) at 200 ppm [7]

CON/C=N/C(=O)c1ccc(C2=CSC(c3cc(Cl)cc(Cl)c3)(C(F)(F)F)C2)cc1C (stereo not shown) [Compound A10, (NE)-4-[2-(3,5-dichlorophenyl)-2-(trifluoromethyl)-3H-thiophen-4-yl]-N-[(methoxyamino)methylene]-2-methyl-benzamide]
≥ 80%: mortality at 200 ppm [1] | mortality at 200 ppm [3] | mortality at 200 ppm [4] | mortality at 200 ppm [5] | percent control (mortality, anti-feedant effect or growth inhibition) at 200 ppm [7]

Cc1cc(C2=C[S+]([O-])C(c3cc(Cl)cc(Cl)c3)(C(F)(F)F)C2)ccc1C(=O)NCC(F)(F)F (stereo not shown) [Compound B1, 4-[2-(3,5-dichlorophenyl)-1-oxido-2-(trifluoromethyl)-3H-thiophen-1-ium-4-yl]-2-methyl-N-(2,2,2-trifluoroethyl)benzamide]
≥ 80%: mortality at 200 ppm [3] | mortality at 200 ppm [4] | percent control (mortality, anti-feedant effect or growth inhibition) at 200 ppm [7]

Cc1cc(C2=CS(=O)(=O)C(c3cc(Cl)cc(Cl)c3)(C(F)(F)F)C2)ccc1C(=O)NCC(F)(F)F (stereo not shown) [Compound B2, 4-[2-(3,5-dichlorophenyl)-1,1-dioxo-2-(trifluoromethyl)-3H-thiophen-4-yl]-2-methyl-N-(2,2,2-trifluoroethyl)benzamide]
≥ 80%: mortality at 200 ppm [1] | mortality at 200 ppm [3] | mortality at 200 ppm [4] | percent control (mortality, anti-feedant effect or growth inhibition) at 200 ppm [7]

N#Cc1cc(C2=CSC(c3cc(Cl)c(Cl)c(Cl)c3)(C(F)(F)F)C2)ccc1-n1cncn1 (stereo not shown) [Compound C1, 2-(1,2,4-triazol-1-yl)-5-[2-(3,4,5-trichlorophenyl)-2-(trifluoromethyl)-3H-thiophen-4-yl]benzonitrile]
≥ 80%: mortality at 200 ppm [1] | mortality at 200 ppm [3] | mortality at 200 ppm [4] | percent control (mortality, anti-feedant effect or growth inhibition) at 200 ppm [7]

CCN1OC[C@@H](NC(=O)c2ccc(C3=CS[C@@](c4cc(Cl)cc(Cl)c4)(C(F)(F)F)C3)cc2C)C1=O [Compound D7, 4-[(2S)-2-(3,5-dichlorophenyl)-2-(trifluoromethyl)-3H-thiophen-4-yl]-N-(2-ethyl-3-oxo-isoxazolidin-4-yl)-2-methyl-benzamide]
≥ 80%: mortality at 200 ppm [2] | mortality at 200 ppm [4] | mortality at 200 ppm [5] | percent control (mortality, anti-feedant effect or growth inhibition) at 200 ppm [7] | mortality at 200 ppm [8]

Cc1cc(C2=CS[C@@](c3cc(Cl)cc(Cl)c3)(C(F)(F)F)C2)ccc1C(=O)N[C@H]1C[S@@+]([O-])C1 [Compound D8, 4-[(2S)-2-(3,5-dichlorophenyl)-2-(trifluoromethyl)-3H-thiophen-4-yl]-2-methyl-N-(1-oxothietan-3-yl)benzamide]
≥ 80%: mortality at 200 ppm [2] | mortality at 200 ppm [4] | mortality at 200 ppm [5] | percent control (mortality, anti-feedant effect or growth inhibition) at 200 ppm [7] | mortality at 200 ppm [8]
